The values below come from publication PMC5589893, “Identification of Aspergillus fumigatus UDP-Galactopyranose Mutase Inhibitors” (Scientific Reports, 2017).

For test [1], the system named is A. fumigatus. Kind of test: Thermotolerance study, growth in PDA at 50 °C. It is filed as cell-based, Aspergillus fumigatus. To be noted: 1000 µM compound, 48 h at 50 °C, vs reference.
The test system of test [2] is UDP-glucuronosyltransferases. To be noted: cited from earlier work.
Test [3] relates to A. fumigatus. Kind of test: Congo red susceptibility assay. The class given is cell-based, Aspergillus fumigatus. To be noted: 100 µM compound with congo red (0.5 and 1 mg/mL), 48 h, 37 °C.
In test [4] the test system is A. fumigatus. Nature of the test: Toxicity study, growth in PDA medium at 37 °C. It is filed as cell-based, Aspergillus fumigatus. To be noted: for A. fumigatus toxicity: 1000 µM; for A. fumigatus toxicity under optimal growth conditions: 600 and 1000 µM, 24-48 h.
Test [5] deals with T1, A. fumigatus UGM (Aspergillus fumigatus, UniProt Q4W1X2).
T1 construct: 8x His-tag (TEV-cleavable) (cleaved yes); made in house; host or cells: E. coli BL21 Turbo (DE3)
Nature of the test: biochemical. It is filed as biochemical. To be noted: for Inhibition of product formation, concentration dependence: UPLC at 20 and 200 µM compound, 2% DMSO; for Concentration effect: inhibition at 200 µM vs 20 µM compound, UPLC; for inhibition at 200 µM: read-out: Inhibition > 50 %. On the procedure:
(§1) The reaction was quenched with the addition of 70 µL acetonitrile. […] Samples were run at a flow rate of 0.5 mL/min for 5 min. IC50 was also determined by following NADPH oxidation at 340 nm. […] Data was analyzed using KaleidaGraph software. […] Global fitting was performed with Graphpad Prims 6 software (La Jolla, CA).

Test [6] concerns the target T1, A. fumigatus UGM. Nature of the test: biochemical. It is filed as biochemical. To be noted: for Type of Inhibition: NADPH oxidation at different concentrations of inhibitor and NADPH; for Inhibition of NADPH oxidation: absence of UDP-Galf. On the procedure:
as §1

Test [7] has as its target T1, A. fumigatus UGM. Nature of the test: biochemical. It is filed as binding. To be noted: for T•∆S / ∆G / ∆H: ITC, 25 °C. On the procedure: Binding of inhibitors to UGM was measured with an Auto-ITC 200 ITC instrument. UGM was dialyzed in 50 mM potassium phosphate buffer, pH 7.0, for 2 h at 4 °C. In all cases, ligands were dissolved in dialysis buffer and protein and ligand were filtered with a […] membrane prior to loading. […] Inhibitor concentration in the syringe was 2 mM (2% DMSO), except for chrysin where the concentration was 600 µM (4% DMSO). […] Thermodynamic parameters were determined from ITC results using Microcal Origin version 7.0 (OriginLab) with the “ITC custom” add-on installed.

For another test, the system named is S. aureus strains. To be noted: cited from earlier work.
For test [8], the target named is T1, A. fumigatus UGM. Kind of test: biochemical. It is filed as binding. To be noted: 20 µM compound, 2% DMSO, 30 nM ADP-TAMRA, normalized to negative control; read-out: Normalized anisotropy (%). How it is done:
High-throughput screening of the Spectrum Collection library using the FP assay with the ADP-TAMRA[22] probe was performed at the Virginia Tech Center for Drug Discovery Screening Laboratory. 384 well plates (Greiner 784900) were used and the reaction volume was 15 µL using 25 mM HEPES buffer (pH 7.0). For the screening, 30 nM of ADP-TAMRA with 6.7 µM UGM (based on the Bradford assay) and 20 µM of library compound were used, with a final DMSO concentration of 2%. Fluorescence polarization measurements were performed with excitation at 544 nm and emission at 584 nm, using a wavelength cutoff of 570 nm. Anisotropy measurements were performed after 30 and 120 minutes of incubation at 25 °C. Anisotropy values were normalized to the values obtained in the negative control sample: UGM, ADP-TAMRA, and DMSO (high anisotropy values). The positive control consisted of ADP-TAMRA and DMSO (low anisotropy values). The Z prime (Z′) value was determined using equation (1) where, σN,P and μN,P represent the standard deviation and the mean value the of the negative and positive controls respectively.1 Z′=1−3(σN+σP)/|μN−μP|

The next test has as its target T2, UGM (Aspergillus fumigatus, UniProt Q4W1X2).
T2 construct: 8x His-tag (TEV-cleavable) (cleaved yes); made in house; host or cells: E. coli BL21 Turbo (DE3)
Kind of test: ThermoFAD melting temperature assay. The class given is binding. To be noted: 20, 100 and 1000 µM compound, 2% DMSO, 1 mg/mL UGM. How it is done: The melting temperature[25] of UGM was determined by measuring the FAD fluorescence as a function of temperature (20–90 °C, 1 °C step) following the reported ThermoFAD procedure. The reaction mix consisted of 20 µL of 1 mg/mL UGM, 2% DMSO in 50 mM potassium phosphate buffer, pH 7.0. As a reference and positive control, the Tm was calculated in the presence DMSO and UDP (10 mM). Different concentrations of inhibitors were added in the range of 0–1 mM at a final DMSO concentration of 2% in the above-mentioned buffer. All experiments were done in triplicate.

T1 sequence (Q4W1X2 whole entry): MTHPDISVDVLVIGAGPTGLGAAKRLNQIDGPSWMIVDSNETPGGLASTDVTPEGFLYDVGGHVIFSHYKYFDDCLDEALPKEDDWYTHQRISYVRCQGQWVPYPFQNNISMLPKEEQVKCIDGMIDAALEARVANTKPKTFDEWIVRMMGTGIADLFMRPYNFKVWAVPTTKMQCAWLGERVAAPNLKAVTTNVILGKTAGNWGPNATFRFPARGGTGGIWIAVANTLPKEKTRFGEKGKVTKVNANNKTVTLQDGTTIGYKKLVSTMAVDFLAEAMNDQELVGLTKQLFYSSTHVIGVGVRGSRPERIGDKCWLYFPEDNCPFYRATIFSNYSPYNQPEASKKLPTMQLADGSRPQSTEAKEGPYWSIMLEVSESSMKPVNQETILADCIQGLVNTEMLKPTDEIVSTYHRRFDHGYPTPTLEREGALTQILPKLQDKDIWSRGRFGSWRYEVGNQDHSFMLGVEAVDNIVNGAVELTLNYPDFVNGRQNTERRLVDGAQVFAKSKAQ
T2 sequence (Q4W1X2 whole entry): as above

Turning to `COc1ccc([C@@H]2CC(=O)c3c(O)cc(O)cc3O2)cc1O` [(2S)-hesperetin], the “Delay in colony development” value with A. fumigatus [1] is recorded as ~ 50%. Also, the “Effect on UDP-glucuronosyltransferases” value in [2] was “inhibitory effect”. Also, the “Growth decrease with congo red” value in the test on A. fumigatus [3] is reported as ~ 50%. Moreover, in the test on A. fumigatus [4], the A. fumigatus toxicity result is “no A. fumigatus toxicity” and the “A. fumigatus toxicity under optimal growth conditions” value was “not toxic”. On A. fumigatus UGM [5], the “Inhibition of product formation, concentration dependence” value was “concentration dependent potency”; the Concentration effect entry was “+”; the inhibition at 200 µM was above 50%. Besides, at A. fumigatus UGM [6], the “Type of Inhibition” value is recorded as “Competitive (NADPH)” and the “Inhibition of NADPH oxidation” value is “inhibited NADPH oxidation”. In addition, the “Type of Inhibition” value at A. fumigatus UGM [6] (listed as (2S)-Hesperetin) is on record as “competitive against NADPH”. In addition, at A. fumigatus UGM [7], the Kd stood at 31 ± 6 µM, the “T•∆S” value was 2.1 ± 0.2 kcal/mol, the “∆G” value was -6.1 ± 0.4 kcal/mol and the “∆H” value was -4.1 ± 0.4 kcal/mol. In the test on S. aureus strains, the Biofilm formation inhibition was above 70%. In addition, on A. fumigatus UGM [8], the remaining activity at 20 µM turned out to be 17%. Besides, on UGM, the “Increase of Tm of UGM” value is ~ 2.7 °C.

Consider `O=C1C[C@@H](c2ccc(O)cc2)Oc2cc(O)cc(O)c21` [(2S)-naringenin], for which the “Delay in colony development” value in the test on A. fumigatus [1] is on record as ~ 30%. The “Effect on UDP-glucuronosyltransferases” value in [2] is listed as “inhibitory effect”. Further, in the test with A. fumigatus [3], the “Growth decrease with congo red” value was ~ 30%. In addition, in the test on A. fumigatus [4], the A. fumigatus toxicity entry is recorded as “no A. fumigatus toxicity” and the “A. fumigatus toxicity under optimal growth conditions” value is on record as “not toxic”. At A. fumigatus UGM [5], the “Inhibition of product formation, concentration dependence” value is reported as “concentration dependent potency”; the Concentration effect entry is given as “+”; the inhibition at 200 µM is above 50%. Further, on A. fumigatus UGM [6], the “Type of Inhibition” value is listed as “competitive against NADPH” and the “Inhibition of NADPH oxidation” value is given as “inhibited NADPH oxidation”. For the same compound, at A. fumigatus UGM [7], the Kd is 65 ± 13 µM, the “T•∆S” value worked out at 0.9 ± 0.3 kcal/mol, the “∆G” value was -5.7 ± 1.0 kcal/mol and the “∆H” value was -4.8 ± 1.0 kcal/mol. Also, the remaining activity at 20 µM at A. fumigatus UGM [8] came to 23%. Further, on UGM, the “Increase of Tm of UGM” value was ~ 2.7 °C.

As usually defined, the inhibition is the share of the control response that was lost under treatment. For orientation: Kd means the concentration at which binding is half-saturated. Read a low Kd as tighter binding.
